Measurements as given in ChEMBL document CHEMBL1201862, “PubChem BioAssay data set” (2004).
Calls of active or inactive are those of the source.

Columns and labels:
Coagulation factor XII = biological target: T1, Coagulation factor XII (Homo sapiens, UniProt P00748); assay: FXIIa inhibitor potency, concentration-response, biochemical (AID 716); type: functional
T1 sequence (P00748 whole entry): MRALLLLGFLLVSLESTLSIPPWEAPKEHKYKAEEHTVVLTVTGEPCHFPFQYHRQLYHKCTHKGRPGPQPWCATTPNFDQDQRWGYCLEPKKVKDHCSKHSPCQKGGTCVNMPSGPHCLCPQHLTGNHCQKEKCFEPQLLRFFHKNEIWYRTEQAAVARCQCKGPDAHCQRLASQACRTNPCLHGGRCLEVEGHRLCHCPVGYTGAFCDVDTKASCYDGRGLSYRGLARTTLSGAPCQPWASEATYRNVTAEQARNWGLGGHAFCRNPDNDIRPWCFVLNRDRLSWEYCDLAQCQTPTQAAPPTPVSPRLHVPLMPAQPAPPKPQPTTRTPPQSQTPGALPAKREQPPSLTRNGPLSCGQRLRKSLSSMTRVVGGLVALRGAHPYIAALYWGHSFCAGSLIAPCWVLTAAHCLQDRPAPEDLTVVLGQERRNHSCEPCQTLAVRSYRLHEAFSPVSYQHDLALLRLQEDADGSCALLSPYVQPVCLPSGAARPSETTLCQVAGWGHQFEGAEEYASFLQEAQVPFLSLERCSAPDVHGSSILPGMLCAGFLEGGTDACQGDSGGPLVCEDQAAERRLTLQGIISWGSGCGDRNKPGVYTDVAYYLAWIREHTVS

Beta-galactosidase = Beta-galactosidase (Escherichia coli, UniProt Q8VNN2); assay: beta-galactosidase enzyme inhibitors and activators, dose response, artefact control for CCR6 antagonist project, biochemical, E. coli enzyme, set 3 (AID 504712); type: functional
Sequence of Beta-galactosidase (Q8VNN2 whole entry): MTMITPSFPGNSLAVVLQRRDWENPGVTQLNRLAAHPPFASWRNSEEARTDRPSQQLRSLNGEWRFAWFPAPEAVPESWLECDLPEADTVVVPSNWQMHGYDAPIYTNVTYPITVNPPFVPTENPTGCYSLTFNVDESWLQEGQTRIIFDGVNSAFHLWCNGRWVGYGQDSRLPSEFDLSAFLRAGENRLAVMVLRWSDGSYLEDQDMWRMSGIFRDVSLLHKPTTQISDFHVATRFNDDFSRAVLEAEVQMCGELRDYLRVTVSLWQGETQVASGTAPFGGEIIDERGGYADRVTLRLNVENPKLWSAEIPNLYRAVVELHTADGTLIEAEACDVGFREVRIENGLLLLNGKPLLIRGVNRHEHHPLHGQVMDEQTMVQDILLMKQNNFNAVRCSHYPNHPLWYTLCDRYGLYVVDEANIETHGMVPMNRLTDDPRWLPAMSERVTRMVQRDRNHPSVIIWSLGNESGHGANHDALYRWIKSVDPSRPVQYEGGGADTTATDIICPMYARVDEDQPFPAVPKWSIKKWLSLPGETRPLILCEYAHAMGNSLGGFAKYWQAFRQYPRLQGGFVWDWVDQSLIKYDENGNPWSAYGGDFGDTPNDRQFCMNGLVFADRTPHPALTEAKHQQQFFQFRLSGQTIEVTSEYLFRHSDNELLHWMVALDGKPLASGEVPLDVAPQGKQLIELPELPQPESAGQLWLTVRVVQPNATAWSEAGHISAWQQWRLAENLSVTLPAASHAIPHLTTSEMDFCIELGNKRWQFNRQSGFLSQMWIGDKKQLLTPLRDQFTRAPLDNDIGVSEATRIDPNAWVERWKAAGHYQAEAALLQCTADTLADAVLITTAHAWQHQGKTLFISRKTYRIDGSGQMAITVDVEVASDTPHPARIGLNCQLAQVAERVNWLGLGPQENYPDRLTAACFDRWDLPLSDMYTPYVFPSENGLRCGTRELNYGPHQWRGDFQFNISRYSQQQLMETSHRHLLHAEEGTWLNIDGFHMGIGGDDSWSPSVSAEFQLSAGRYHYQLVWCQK

[1] = biological target: Luciferin 4-monooxygenase (Photinus pyralis, UniProt P08659); assay: firefly luciferase enzyme inhibitors, dose response, biochemical, luminescence (AID 1891)
[2] = Luminescence Cell-Based Dose Confirmation HTS to Identify Inhibitors of Platelet Dense Granule Release. [Related pubchem assays: 1663 (Primary HTS), 1678 (Summary of Project)]; type: functional
[3] = Fluorescence-based cell-based high throughput dose response assay for inhibitors of the interaction of nucleotide-binding oligomerization domain containing 2 (NOD2) and the receptor-interacting serine-threonine kinase 2 (RIPK2).; type: functional; details: Homo sapiens
[4] = biological target: T2, Voltage-gated N-type calcium channel alpha-1B subunit/Amyloid beta A4 precursor protein-binding family A member 1 (Homo sapiens, UniProt Q00975+Q02410); type: protein assay
T2 sequence (Q00975 whole entry): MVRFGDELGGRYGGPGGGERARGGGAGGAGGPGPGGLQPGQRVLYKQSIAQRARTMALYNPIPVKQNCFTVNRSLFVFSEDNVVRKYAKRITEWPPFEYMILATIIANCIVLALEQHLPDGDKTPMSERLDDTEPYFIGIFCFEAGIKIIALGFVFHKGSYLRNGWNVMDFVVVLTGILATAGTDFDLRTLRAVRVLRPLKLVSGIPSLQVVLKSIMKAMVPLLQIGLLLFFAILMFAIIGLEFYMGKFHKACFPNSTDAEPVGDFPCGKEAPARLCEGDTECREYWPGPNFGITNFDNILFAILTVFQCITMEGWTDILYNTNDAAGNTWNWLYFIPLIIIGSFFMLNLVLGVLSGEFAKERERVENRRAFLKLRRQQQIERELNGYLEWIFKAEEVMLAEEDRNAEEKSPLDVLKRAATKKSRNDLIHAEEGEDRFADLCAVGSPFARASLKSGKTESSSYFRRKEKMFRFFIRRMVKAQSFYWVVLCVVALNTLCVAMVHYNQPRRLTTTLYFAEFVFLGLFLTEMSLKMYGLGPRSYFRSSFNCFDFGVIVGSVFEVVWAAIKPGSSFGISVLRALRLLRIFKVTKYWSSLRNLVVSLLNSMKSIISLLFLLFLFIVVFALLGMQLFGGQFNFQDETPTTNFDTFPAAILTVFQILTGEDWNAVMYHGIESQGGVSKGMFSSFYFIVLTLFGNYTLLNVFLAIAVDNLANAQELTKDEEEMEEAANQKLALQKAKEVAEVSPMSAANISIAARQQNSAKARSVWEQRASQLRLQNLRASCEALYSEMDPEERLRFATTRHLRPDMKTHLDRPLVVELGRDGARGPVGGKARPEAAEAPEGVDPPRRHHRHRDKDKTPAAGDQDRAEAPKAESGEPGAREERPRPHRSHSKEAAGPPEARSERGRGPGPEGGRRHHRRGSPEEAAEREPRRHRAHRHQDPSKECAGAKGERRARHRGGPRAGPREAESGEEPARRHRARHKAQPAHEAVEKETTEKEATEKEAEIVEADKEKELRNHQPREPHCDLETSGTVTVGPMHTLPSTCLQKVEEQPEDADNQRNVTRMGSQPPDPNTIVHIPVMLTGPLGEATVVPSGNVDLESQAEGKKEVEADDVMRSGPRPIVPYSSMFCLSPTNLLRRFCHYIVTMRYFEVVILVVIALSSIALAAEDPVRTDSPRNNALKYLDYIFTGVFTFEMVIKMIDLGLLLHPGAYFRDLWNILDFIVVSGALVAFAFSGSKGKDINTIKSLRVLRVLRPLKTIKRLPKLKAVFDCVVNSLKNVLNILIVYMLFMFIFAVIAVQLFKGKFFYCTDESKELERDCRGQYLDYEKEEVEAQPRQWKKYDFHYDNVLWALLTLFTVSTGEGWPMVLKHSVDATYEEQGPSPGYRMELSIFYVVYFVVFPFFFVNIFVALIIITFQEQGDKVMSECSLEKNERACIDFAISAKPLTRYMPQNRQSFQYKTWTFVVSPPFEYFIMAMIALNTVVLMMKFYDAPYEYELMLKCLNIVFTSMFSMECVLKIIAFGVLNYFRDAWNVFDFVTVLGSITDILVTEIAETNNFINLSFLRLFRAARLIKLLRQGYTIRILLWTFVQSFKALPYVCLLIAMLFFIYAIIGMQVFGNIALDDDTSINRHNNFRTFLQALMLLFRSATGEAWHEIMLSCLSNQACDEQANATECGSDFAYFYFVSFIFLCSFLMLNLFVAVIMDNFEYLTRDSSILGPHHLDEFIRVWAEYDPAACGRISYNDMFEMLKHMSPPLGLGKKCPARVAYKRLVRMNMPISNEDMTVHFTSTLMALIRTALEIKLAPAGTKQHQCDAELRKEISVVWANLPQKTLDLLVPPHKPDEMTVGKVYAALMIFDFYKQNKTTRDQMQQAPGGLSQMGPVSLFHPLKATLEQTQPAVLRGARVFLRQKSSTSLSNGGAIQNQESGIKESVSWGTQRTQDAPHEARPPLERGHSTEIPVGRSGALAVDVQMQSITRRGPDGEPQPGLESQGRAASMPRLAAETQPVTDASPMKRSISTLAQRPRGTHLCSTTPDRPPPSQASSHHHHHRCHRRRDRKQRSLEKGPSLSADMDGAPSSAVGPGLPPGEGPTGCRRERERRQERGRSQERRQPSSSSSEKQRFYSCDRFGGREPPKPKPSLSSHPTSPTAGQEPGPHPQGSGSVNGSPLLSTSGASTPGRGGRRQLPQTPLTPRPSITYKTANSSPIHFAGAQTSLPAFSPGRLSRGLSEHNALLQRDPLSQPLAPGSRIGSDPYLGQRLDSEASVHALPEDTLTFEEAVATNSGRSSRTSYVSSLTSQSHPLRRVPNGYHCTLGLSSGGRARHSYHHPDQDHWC
T2 sequence (Q02410 whole entry): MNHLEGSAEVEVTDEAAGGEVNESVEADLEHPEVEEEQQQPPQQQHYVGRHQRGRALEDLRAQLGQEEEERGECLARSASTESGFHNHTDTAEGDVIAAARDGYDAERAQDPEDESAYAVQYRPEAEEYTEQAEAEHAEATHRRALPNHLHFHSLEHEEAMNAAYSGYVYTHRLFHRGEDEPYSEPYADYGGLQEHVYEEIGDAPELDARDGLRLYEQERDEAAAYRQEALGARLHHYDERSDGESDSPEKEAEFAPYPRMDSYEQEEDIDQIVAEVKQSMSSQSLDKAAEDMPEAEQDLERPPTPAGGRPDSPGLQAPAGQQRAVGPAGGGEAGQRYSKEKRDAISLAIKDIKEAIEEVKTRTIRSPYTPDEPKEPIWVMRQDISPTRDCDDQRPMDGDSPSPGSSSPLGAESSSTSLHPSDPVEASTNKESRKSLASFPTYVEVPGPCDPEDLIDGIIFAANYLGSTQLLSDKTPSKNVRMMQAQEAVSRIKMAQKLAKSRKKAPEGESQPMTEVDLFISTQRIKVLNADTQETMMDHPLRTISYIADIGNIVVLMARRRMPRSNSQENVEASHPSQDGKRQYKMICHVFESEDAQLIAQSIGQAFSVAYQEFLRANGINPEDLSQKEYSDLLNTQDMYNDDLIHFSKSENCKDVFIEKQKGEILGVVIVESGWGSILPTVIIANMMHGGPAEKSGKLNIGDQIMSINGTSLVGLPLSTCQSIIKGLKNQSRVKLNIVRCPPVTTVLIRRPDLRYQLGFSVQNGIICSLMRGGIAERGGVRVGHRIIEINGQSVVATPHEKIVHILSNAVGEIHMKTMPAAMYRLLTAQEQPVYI

[5] = biological target: T2, Voltage-gated N-type calcium channel alpha-1B subunit/Amyloid beta A4 precursor protein-binding family A member 1; type: protein assay; remark: listed apart in the source
Beta Lactamase = Beta Lactamase (Pseudomonas aeruginosa, UniProt Q932Y6); assay: beta-lactamase reporter inhibitor potency, dose response, artefact control for NOD2-RIPK2 interaction inhibitor project, BLA reporter cells, FRET fluorescence (AID 651552); type: functional, cell-based
Sequence of Beta Lactamase (Q932Y6 whole entry): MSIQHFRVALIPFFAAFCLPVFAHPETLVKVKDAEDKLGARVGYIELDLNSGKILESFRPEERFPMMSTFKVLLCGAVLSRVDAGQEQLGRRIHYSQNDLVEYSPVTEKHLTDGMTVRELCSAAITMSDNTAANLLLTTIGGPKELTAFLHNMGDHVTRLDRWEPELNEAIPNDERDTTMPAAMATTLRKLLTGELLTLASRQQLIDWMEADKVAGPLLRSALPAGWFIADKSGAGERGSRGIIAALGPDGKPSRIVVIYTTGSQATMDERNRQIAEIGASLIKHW

Hexokinase = Hexokinase (Trypanosoma brucei, UniProt Q38C41); assay: Confirmation assay for inhibitors of Trypanosoma brucei hexokinase 1-Analogue-first series. [Related pubchem assays (depositor defined):AID1430, AID1632, AID2516, AID2560, AID2579, AID2600, AID449725, AID492951]; type: functional
[6] = biological target: T3, Kappa-type opioid receptor (Homo sapiens, UniProt P41145); assay: SAR analysis of Antagonists of the Kappa Opioid Receptor (KOR) using an Image-Based Assay - Set 3. [Related pubchem assays (depositor defined):AID1777, AID1785]; type: functional
T3 sequence (P41145 whole entry): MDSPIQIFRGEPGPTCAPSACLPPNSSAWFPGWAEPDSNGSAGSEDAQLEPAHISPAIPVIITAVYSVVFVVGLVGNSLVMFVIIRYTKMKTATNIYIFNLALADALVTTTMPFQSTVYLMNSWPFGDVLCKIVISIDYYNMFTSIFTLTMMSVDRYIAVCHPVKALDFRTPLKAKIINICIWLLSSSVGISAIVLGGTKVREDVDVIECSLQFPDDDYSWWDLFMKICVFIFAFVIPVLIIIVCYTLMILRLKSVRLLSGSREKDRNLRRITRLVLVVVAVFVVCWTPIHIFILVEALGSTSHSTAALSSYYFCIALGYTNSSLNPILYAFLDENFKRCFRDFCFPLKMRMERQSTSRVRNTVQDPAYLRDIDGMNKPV

[7] = biological target: Delta-type opioid receptor (Homo sapiens, UniProt P41143); assay: SAR Analysis of Antagonists of the DOR Receptor using an Image-Based Assay - Set 3. [Related pubchem assays (depositor defined):AID1777, AID1785]; type: functional;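 note: U2OS cells expressing DOR1 and beta-arrestin GFP stimulated with 100 nM SNC80; imaging of GFP-tagged beta-arrestin moving into spots after receptor activation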
[8] = biological target: T3, Kappa-type opioid receptor; assay: SAR analysis of small molecule antagonists of the kappa opioid receptor via a luminescent beta-arrestin assay - Set 3. [Related pubchem assays (depositor defined):AID1777, AID1778, AID1785, AID1786, AID1966, AID2133, AID2136, AID2285, AID2495]; type: functional
Mu-type opioid receptor = Mu-type opioid receptor (Homo sapiens, UniProt P35372); assay: SAR Analysis of Antagonists of the MOR Receptor using an Image-Based Assay - Set 3. [Related pubchem assays (depositor defined):AID1777, AID1785, AID1786, AID1966, AID2133, AID2136, AID2284, AID2285, AID2420]; type: functional
[9] = biological target: T3, Kappa-type opioid receptor; assay: SAR analysis of Antagonists of the Kappa Opioid Receptor (KOR) using an Image-Based Assay - Set 4. [Related pubchem assays (depositor defined):AID1777, AID1785]; type: functional
cells [10] = type: functional, cell-based
cells [11] = type: functional
cells [12] = type: functional, cell-based; remark: listed apart in the source
[13] = biological target: DNA damage-inducible transcript 3 protein (Mus musculus, UniProt P35639); type: functional, Cricetulus griseus
[14] = biological target: T4, Ubiquitin-conjugating enzyme E2 N (Homo sapiens, UniProt P61088); type: functional;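 note: Dose-response confirmation in a TR-FRET assay detecting UBC13-driven polyubiquitin chain formation, inhibition measured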
T4 sequence (P61088 whole entry): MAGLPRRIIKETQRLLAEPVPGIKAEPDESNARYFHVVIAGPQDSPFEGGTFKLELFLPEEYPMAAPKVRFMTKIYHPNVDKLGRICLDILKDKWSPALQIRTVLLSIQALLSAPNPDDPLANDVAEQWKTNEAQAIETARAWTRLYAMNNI

[15] = biological target: T5, Trace amine-associated receptor 1 (Homo sapiens, UniProt Q96RJ0); assay: Counterscreen for agonists of the human trace amine associated receptor 1 (hTAAR1): Fluorescence-based cell-based high throughput dose response assay to identify hTAAR1 agonist that also desensitize TAAR1 receptor response.; type: functional
T5 sequence (Q96RJ0 whole entry): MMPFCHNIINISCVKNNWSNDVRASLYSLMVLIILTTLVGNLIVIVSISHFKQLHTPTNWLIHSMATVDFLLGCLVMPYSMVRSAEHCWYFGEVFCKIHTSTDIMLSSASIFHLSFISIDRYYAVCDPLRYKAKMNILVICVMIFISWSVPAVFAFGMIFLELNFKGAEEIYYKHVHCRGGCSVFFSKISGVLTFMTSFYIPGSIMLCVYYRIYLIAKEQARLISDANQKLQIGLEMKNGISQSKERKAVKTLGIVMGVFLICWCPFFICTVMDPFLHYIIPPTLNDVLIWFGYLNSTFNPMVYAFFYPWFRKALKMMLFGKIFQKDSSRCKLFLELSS

[16] = Vero E6 cell cytotoxicity, dose response, cytotoxicity control for non-replicating M. tuberculosis project, secondary assay (AID 492998); type: functional, VeroE6; details: Vero C1008
Nonstructural protein 1 = Nonstructural protein 1 (Influenza A virus, UniProt Q194T2); type: functional, Influenza A virus (A/California/07/2009(H1N1))
Sequence of Nonstructural protein 1 (Q194T2 whole entry): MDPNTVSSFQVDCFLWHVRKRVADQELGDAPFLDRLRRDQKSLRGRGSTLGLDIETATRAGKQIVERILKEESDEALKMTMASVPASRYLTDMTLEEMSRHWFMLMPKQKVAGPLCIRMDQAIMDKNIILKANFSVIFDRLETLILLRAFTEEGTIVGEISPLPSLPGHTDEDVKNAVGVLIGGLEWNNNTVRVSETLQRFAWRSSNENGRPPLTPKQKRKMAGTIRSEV

[17] = THP-1 cell cytotoxicity, dose response, cytotoxicity control for non-replicating M. tuberculosis project (AID 489025); type: functional
[18] = biological target: T6, DNA repair protein RAD52 homolog (Homo sapiens, UniProt P43351); type: functional, biochemical
T6 sequence (P43351 whole entry): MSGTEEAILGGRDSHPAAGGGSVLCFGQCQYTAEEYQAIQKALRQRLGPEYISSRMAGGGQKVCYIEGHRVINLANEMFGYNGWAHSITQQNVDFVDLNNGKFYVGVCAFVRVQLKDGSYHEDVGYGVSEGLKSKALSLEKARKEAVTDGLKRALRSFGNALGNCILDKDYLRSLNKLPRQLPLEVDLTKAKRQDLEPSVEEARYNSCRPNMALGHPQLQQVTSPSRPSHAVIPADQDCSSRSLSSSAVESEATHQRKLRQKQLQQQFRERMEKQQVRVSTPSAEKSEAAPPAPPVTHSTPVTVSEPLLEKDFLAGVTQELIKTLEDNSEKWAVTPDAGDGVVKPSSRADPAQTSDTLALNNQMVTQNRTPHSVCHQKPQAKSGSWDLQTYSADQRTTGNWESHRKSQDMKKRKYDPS

[19] = biological target: T5, Trace amine-associated receptor 1; assay: Fluorescence-based cell-based high throughput dose response assay to identify agonists of the human trace amine associated receptor 1 (TAAR1).; type: functional

In the case of `Cc1ccc(NC(=O)C[S+]([O-])CC(=O)NCC2CCCO2)cc1` (stereo not given), the IC50 (Coagulation factor XII) is reported as > 50 µM (inactive).
With `O=C1C=C(c2ccccc2)C(=O)N1Nc1ccccc1` the IC50 (Beta-galactosidase) was > 66.6 µM (inactive), the EC50 [1] was > 112 µM (not active) and the EC50 [2] was 8.82 µM (active). For the same compound, the IC50 [3] was 1.68 µM (active), the IC50 [4] was 20.4 µM (active) and the IC50 [5] was 45.8 µM (active). For the same compound, the IC50 (Beta Lactamase) was 18.7 µM (inactive).
With `COc1ccc(C(=O)NC(CC(=O)O)c2cccc(Cl)c2)cc1` (stereo not given) the IC50 (Hexokinase) was > 25 µM (inactive).
In the case of `Cc1ccc(N2CCN(CCCNC(=O)Cn3c(=O)c4cccn4c4cccnc43)CC2)cc1`, the IC50 [6] is reported as 0.776 µM (active), the IC50 [7] is reported as > 32 µM (inactive) and the IC50 [8] is reported as 3.68 µM (active). The IC50 (Mu-type opioid receptor) was 18.8 µM (inactive) and the IC50 [9] was 1.01 µM (active).
With `N=C(N)N/N=C/c1cn(-c2ccccc2)nc1-c1cccs1.O=[N+]([O-])O` the EC50 (cells [10]) was 11.4 µM (inactive), the IC50 (cells [11]) was 11 µM (active) and the IC50 (cells [12]) was 12.2 µM (inactive). For the same compound, the “Absolute IC50 (CHOP)” value [13] was 10 µM, the IC50 [14] was > 20 µM (inactive) and the IC50 [15] was 17.7 µM (inactive). For the same compound, the CC50 [16] was 11 µM (active), the IC50 (Nonstructural protein 1) was > 100 µM (active) and the CC50 [17] was 12.3 µM (active). For the same compound, the AC50 [18] was 3.85 µM (active) and the EC50 [19] was 6.9 µM (active).
